Reference: patent publication US20230295118A1 (EnhancedBio Inc., priority 2022, published 2023)

Tests used:
Type in all cases: cell-based
[1] = test system: mantle cell lymphoma cell (Mino or JeKo-1); assay: Antiproliferative effect, MTS cell viability assay; details: 72 h; for IC50: mantle cell lymphoma cell (Mino or JeKo-1), MTS assay, read-out: IC50 (anti-proliferation)
Protocol: Antiproliferative effect of the exemplary compounds was assessed in B-cell malignancy models.
To assess the effect of the exemplary compounds on cell viability in B-cell malignancy models by degradation of CDK4/6 proteins, Mino cells were treated with varying concentrations of exemplary compounds (0, 0.0001, 0.001, 0.01, 0.1, 1 μM) or positive control (palbociclib and abemaciclib). Under these conditions, cell viability was determined by an MTS assay. Cytotoxicity was assayed by the determination of reduced tetrazolium (formazan) created by metabolically active cells as detected at 490 nanometers (nm) absorbance using a microplate reader (BMG Labtech, Cary, NC, USA).
The exemplary compounds attenuated the viability of Mino cells in a concentration-dependent manner at 72 h post treatment. Results are shown in Table 1 and FIGS. 2-15 for each exemplary compound.

CDK4 = molecular target: T1, CDK4 (Homo sapiens, UniProt P11802); assay: CDK4 degradation (DC50, Dmax)
T1 construct: endogenous in cells
T1 sequence (P11802 whole entry): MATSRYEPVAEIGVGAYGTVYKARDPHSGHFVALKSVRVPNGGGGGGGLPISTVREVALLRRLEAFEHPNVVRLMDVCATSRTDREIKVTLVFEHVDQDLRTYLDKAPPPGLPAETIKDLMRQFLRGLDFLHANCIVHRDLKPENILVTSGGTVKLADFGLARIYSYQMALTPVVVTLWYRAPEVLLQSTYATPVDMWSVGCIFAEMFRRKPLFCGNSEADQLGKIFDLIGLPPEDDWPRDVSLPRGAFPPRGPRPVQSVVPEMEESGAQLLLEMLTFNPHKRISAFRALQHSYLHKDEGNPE

CDK6 = molecular target: T2, CDK6 (Homo sapiens, UniProt Q00534); assay: CDK6 degradation (DC50, Dmax)
T2 construct: endogenous in cells
T2 sequence (Q00534 whole entry): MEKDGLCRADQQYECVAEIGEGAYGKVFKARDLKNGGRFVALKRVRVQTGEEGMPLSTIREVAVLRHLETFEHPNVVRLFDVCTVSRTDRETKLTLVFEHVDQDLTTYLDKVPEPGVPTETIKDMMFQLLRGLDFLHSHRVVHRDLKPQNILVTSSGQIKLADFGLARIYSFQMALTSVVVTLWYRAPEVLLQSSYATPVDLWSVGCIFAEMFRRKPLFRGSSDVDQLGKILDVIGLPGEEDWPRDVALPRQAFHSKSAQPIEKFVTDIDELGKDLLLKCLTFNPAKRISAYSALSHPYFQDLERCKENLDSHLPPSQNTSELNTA

For CC(=O)c1c(C)c2cnc(Nc3ccc(N4CCN(CC5CCN(c6cccc7c6C(=O)N(C6CCC(=O)NC6=O)C7=O)CC5)CC4)cn3)nc2n(C2CCCC2)c1=O (stereo not shown) [Compound 78, 4-(4-((4-(6-((6-acetyl-8-cyclopentyl-5-methyl-7-oxo-7,8-dihydropyrido[2,3-d]pyrimidin-2-yl)amino)pyridin-3-yl)piperazin-1-yl)methyl)piperidin-1-yl)-2-(2,6-dioxopiperidin-3-yl) isoindoline-1,3-dione], the IC50 [1] was 50 to 200 nM, the DC50 (CDK4) was 50 to 200 nM and the Dmax (CDK4) was > 60%. The DC50 (CDK6) was 50 to 200 nM and the Dmax (CDK6) was > 60%.
For CC(=O)c1c(C)c2cnc(Nc3ccc(N4CCN(C(=O)N5CCC(CC6CCN(c7ccc8c(c7)C(=O)N(C7CCC(=O)NC7=O)C8=O)CC6)CC5)CC4)cn3)nc2n(C2CCCC2)c1=O (stereo not shown) [Compound 13, 5-(4-((1-(4-(6-((6-acetyl-8-cyclopentyl-5-methyl-7-oxo-7,8-dihydropyrido[2,3-d]pyrimidin-2-yl)amino)pyridin-3-yl)piperazine-1-carbonyl)piperidin-4-yl)methyl)piperidin-1-yl)-2-(2,6-dioxopiperidin-3-yl)isoindoline-1,3-dione], the IC50 [1] was 50 to 200 nM, the DC50 (CDK4) was 50 to 200 nM and the Dmax (CDK4) was > 60%. For the same molecule, the DC50 (CDK6) was 50 to 200 nM and the Dmax (CDK6) was > 60%.
In the case of CC(=O)c1c(C)c2cnc(Nc3ccc(N4CCN(CC5CN(c6ccc(C(=O)NC7CCC(=O)NC7=O)cc6)C5)CC4)cn3)nc2n(C2CCCC2)c1=O (stereo not shown) [Compound 119, 4-(3-((4-(6-((6-acetyl-8-cyclopentyl-5-methyl-7-oxo-7,8-dihydropyrido[2,3-d]pyrimidin-2-yl)amino)pyridin-3-yl)piperazin-1-yl)methyl)azetidin-1-yl)-N-(2,6-dioxopiperidin-3-yl)benzamide], the IC50 [1] is reported as < 50 nM, the DC50 (CDK4) is reported as 50 to 200 nM and the Dmax (CDK4) is reported as > 80%. For the same molecule, the DC50 (CDK6) was 50 to 200 nM and the Dmax (CDK6) was > 80%.
In the case of CC(=O)c1c(C)c2cnc(Nc3ccc(N4CCN(CC5CCN(C(=O)N6CCC(CN7CCN(c8ccc9c(c8)C(=O)N(C8CCC(=O)NC8=O)C9=O)CC7)CC6)CC5)CC4)cn3)nc2n(C2CCCC2)c1=O (stereo not shown) [Compound 84, 5-(4-((1-(4-((4-(6-((6-acetyl-8-cyclopentyl-5-methyl-7-oxo-7,8-dihydropyrido[2,3-d]pyrimidin-2-yl)amino)pyridin-3-yl)piperazin-1-yl)methyl)piperidine-1-carbonyl)piperidin-4-yl)methyl)piperazin-1-yl)-2-(2,6-dioxopiperidin-3-yl) isoindoline-1,3-dione], the IC50 [1] is reported as < 50 nM, the DC50 (CDK4) is reported as 50 to 200 nM and the Dmax (CDK4) is reported as > 80%. For the same molecule, the DC50 (CDK6) was 50 to 200 nM and the Dmax (CDK6) was > 80%.
For CC(=O)c1c(C)c2cnc(Nc3ccc(N4CCN(C5CCN(c6ccc7c(c6)CN(C6CCC(=O)NC6=O)C7=O)CC5)CC4)cn3)nc2n(C2CCCC2)c1=O (stereo not shown) [Compound 64, 3-(5-(4-(4-(6-((6-acetyl-8-cyclopentyl-5-methyl-7-oxo-7,8-dihydropyrido[2,3-d]pyrimidin-2-yl)amino)pyridin-3-yl)piperazin-1-yl)piperidin-1-yl)-1-oxoisoindolin-2-yl)piperidine-2,6-dione], the IC50 [1] was < 50 nM, the DC50 (CDK4) was 50 to 200 nM and the Dmax (CDK4) was > 80%. The DC50 (CDK6) was 50 to 200 nM and the Dmax (CDK6) was > 80%.
For CC(=O)c1c(C)c2cnc(Nc3ccc(N4CCN(CCN5CCC(c6ccc7c(c6)C(=O)N(C6CCC(=O)NC6=O)C7=O)CC5)CC4)cn3)nc2n(C2CCCC2)c1=O (stereo not shown) [Compound 71, 5-(1-(2-(4-(6-((6-acetyl-8-cyclopentyl-5-methyl-7-oxo-7,8-dihydropyrido[2,3-d]pyrimidin-2-yl)amino)pyridin-3-yl)piperazin-1-yl)ethyl)piperidin-4-yl)-2-(2,6-dioxopiperidin-3-yl)isoindoline-1,3-dione], the IC50 [1] was 50 to 200 nM, the DC50 (CDK4) was > 200 nM and the Dmax (CDK4) was > 60%. For the same molecule, the DC50 (CDK6) was > 200 nM and the Dmax (CDK6) was > 60%.
Cc1nc2c(F)cc(-c3nc(Nc4ccc(CC5CCN(C(=O)C6CN(c7ccc8c(c7)C(=O)N(C7CCC(=O)NC7=O)C8=O)C6)CC5)cn4)ncc3F)cc2n1C(C)C (stereo not shown) [Compound 143, 2-(2,6-dioxopiperidin-3-yl)-5-(3-(4-((6-((5-fluoro-4-(4-fluoro-1-isopropyl-2-methyl-1H-benzo[d]imidazol-6-yl)pyrimidin-2-yl)amino)pyridin-3-yl)methyl)piperidine-1-carbonyl)azetidin-1-yl)isoindoline-1,3-dione] was tested, and the IC50 [1] was < 50 nM, the DC50 (CDK4) was 50 to 200 nM and the Dmax (CDK4) was > 80%. The DC50 (CDK6) was 50 to 200 nM and the Dmax (CDK6) was > 60%.
In the case of CC(=O)c1c(C)c2cnc(Nc3ccc(N4CCN(C(=O)N5CCN(c6ccc7c(c6)CN(C6CCC(=O)NC6=O)C7=O)CC5)CC4)cn3)nc2n(C2CCCC2)c1=O (stereo not shown) [Compound 2, 3-(5-(4-(4-(6-((6-acetyl-8-cyclopentyl-5-methyl-7-oxo-7,8-dihydropyrido[2,3-d]pyrimidin-2-yl)amino)pyridin-3-yl)piperazine-1-carbonyl)piperazin-1-yl)-1-oxoisoindolin-2-yl)piperidine-2,6-dione], the IC50 [1] is reported as 50 to 200 nM, the DC50 (CDK4) is reported as > 200 nM and the Dmax (CDK4) is reported as > 60%. The DC50 (CDK6) was > 200 nM and the Dmax (CDK6) was > 60%.
CN(C)C(=O)c1cc2cnc(Nc3ccc(N4CCN(CCCNc5ccc6c(c5)C(=O)N(C5CCC(=O)NC5=O)C6=O)CC4)cn3)nc2n1C1CCCC1 (stereo not shown) [Compound 75, 7-cyclopentyl-2-((5-(4-(3-((2-(2,6-dioxopiperidin-3-yl)-1,3-dioxoisoindolin-5-yl)amino)propyl)piperazin-1-yl)pyridin-2-yl)amino)-N,N-dimethyl-7H-pyrrolo[2,3-d]pyrimidine-6-carboxamide] was tested, and the IC50 [1] was < 50 nM, the DC50 (CDK4) was < 50 nM and the Dmax (CDK4) was > 80%. For the same molecule, the DC50 (CDK6) was < 50 nM and the Dmax (CDK6) was > 80%.
For Cc1nc2c(F)cc(-c3nc(Nc4ccc(CN5CCN(CCCNc6cccc7c6C(=O)N(C6CCC(=O)NC6=O)C7=O)CC5)cn4)ncc3F)cc2n1C(C)C (stereo not shown) [Compound 100, 2-(2,6-dioxopiperidin-3-yl)-4-((3-(4-((6-((5-fluoro-4-(4-fluoro-1 isopropyl-2-methyl-1H-benzo[d]imidazol-6-yl)pyrimidin-2-yl)amino)pyridin-3-yl)methyl)piperazin-1-yl)propyl)amino) isoindoline-1,3-dione], the IC50 [1] was < 50 nM, the “inhibition of cell proliferation of Mino cells” value ([1]; Mino cells, 0-1 μM, result in words) was “dose-dependent inhibition of cell proliferation” and the DC50 (CDK4) was 50 to 200 nM. The Dmax (CDK4) was > 80%, the DC50 (CDK6) was 50 to 200 nM and the Dmax (CDK6) was > 80%.
In the case of Cc1nc2c(F)cc(-c3nc(Nc4ccc(CC5CCN(C(=O)C6CCN(c7ccc(NC8CCC(=O)NC8=O)cc7)CC6)CC5)cn4)ncc3F)cc2n1C(C)C (stereo not shown) [Compound 164, 3-((4-(4-(4-((6-((5-fluoro-4-(4-fluoro-1-isopropyl-2-methyl-1H-benzo[d]imidazol-6-yl)pyrimidin-2-yl)amino)pyridin-3-yl)methyl)piperidine-1-carbonyl)piperidin-1-yl)phenyl)amino) piperidine-2,6-dione], the IC50 [1] is reported as 50 to 200 nM, the DC50 (CDK4) is reported as 50 to 200 nM and the Dmax (CDK4) is reported as > 60%. For the same molecule, the DC50 (CDK6) was 50 to 200 nM and the Dmax (CDK6) was > 80%.
For CC(=O)c1c(C)c2cnc(Nc3ccc(N4CCN(C(=O)N5CCN(CC6CCN(c7ccc8c(c7)CN(C7CCC(=O)NC7=O)C8=O)CC6)CC5)CC4)cn3)nc2n(C2CCCC2)c1=O (stereo not shown) [Compound 16, 3-(5-(4-((4-(4-(6-((6-acetyl-8-cyclopentyl-5-methyl-7-oxo-7,8-dihydropyrido[2,3-d]pyrimidin-2-yl)amino)pyridin-3-yl)piperazine-1-carbonyl)piperazin-1-yl)methyl)piperidin-1-yl)-1-oxoisoindolin-2-yl)piperidine-2,6-dione], the IC50 [1] was > 200 nM, the DC50 (CDK4) was > 200 nM and the Dmax (CDK4) was > 50%. For the same molecule, the DC50 (CDK6) was > 200 nM and the Dmax (CDK6) was > 50%.
CC(=O)c1c(C)c2cnc(Nc3ccc(N4CCN(C(=O)N5CCN(C6CCN(c7ccc8c(c7)CN(C7CCC(=O)NC7=O)C8=O)CC6)CC5)CC4)cn3)nc2n(C2CCCC2)c1=O (stereo not shown) [Compound 6, 3-(5-(4-(4-(4-(6-((6-acetyl-8-cyclopentyl-5-methyl-7-oxo-7,8-dihydropyrido[2,3-d]pyrimidin-2-yl)amino)pyridin-3-yl)piperazine-1-carbonyl)piperazin-1-yl)piperidin-1-yl)-1-oxoisoindolin-2-yl)piperidine-2,6-dione] was tested, and the IC50 [1] was > 200 nM, the DC50 (CDK4) was > 200 nM and the Dmax (CDK4) was > 50%. For the same molecule, the DC50 (CDK6) was > 200 nM and the Dmax (CDK6) was > 50%.
For CC(=O)c1c(C)c2cnc(Nc3ccc(N4CCN(CC5CCN(C(=O)Nc6ccc7c(c6)C(=O)N(C6CCC(=O)NC6=O)C7=O)CC5)CC4)cn3)nc2n(C2CCCC2)c1=O (stereo not shown) [Compound 41, 4-((4-(6-((6-acetyl-8-cyclopentyl-5-methyl-7-oxo-7,8-dihydropyrido[2,3-d]pyrimidin-2-yl)amino)pyridin-3-yl)piperazin-1-yl)methyl)-N-(2-(2,6-dioxopiperidin-3-yl)-1,3-dioxoisoindolin-5-yl)piperidine-1-carboxamide], the IC50 [1] was < 50 nM, the DC50 (CDK4) was < 50 nM and the Dmax (CDK4) was > 80%. The DC50 (CDK6) was 50 to 200 nM and the Dmax (CDK6) was > 80%.
For Cc1nc2c(F)cc(-c3nc(Nc4ccc(CC5CCN(C(=O)C6CN(c7ccc8c(c7)CN(C7CCC(=O)NC7=O)C8=O)C6)CC5)cn4)ncc3F)cc2n1C(C)C (stereo not shown) [Compound 144, 3-(5-(3-(4-((6-((5-fluoro-4-(4-fluoro-1-isopropyl-2-methyl-1H-benzo[d]imidazol-6-yl)pyrimidin-2-yl)amino)pyridin-3-yl)methyl)piperidine-1-carbonyl)azetidin-1-yl)-1-oxoisoindolin-2-yl) piperidine-2,6-dione], the IC50 [1] was < 50 nM, the DC50 (CDK4) was 50 to 200 nM and the Dmax (CDK4) was > 80%. The DC50 (CDK6) was 50 to 200 nM and the Dmax (CDK6) was > 80%.
